Test results reported in PMC11403616, “Arcopilins: A New Family of Staphylococcus aureus Biofilm Disruptors from the Soil Fungus Arcopilus navicularis” (Journal of Medicinal Chemistry, 2024).
≈ marks a conversion by molar mass, not a printed value. Entries after “also recorded” stand apart in the source; their conditions may differ. Marks after values point to notes of the source that are not given here. Each block holds one compound with its values, some of them ahead of it.

Tests used:
R. glutinis DSM 10134 = experiment: MIC against fungi (antimicrobial assay); type: cell-based, Rhodotorula glutinis; details: – = no activity observed under test conditions
Procedure: (§1) The antimicrobial activities of compounds 1–7 (Acp A–G) were assessed against different bacterial and fungal strains in addition to their cytotoxic effects on two mammalian cell lines. The tested microorganisms comprised a diverse array of clinically relevant pathogens, encompassing sensitive indicator strains. Among the Gram-positive bacteria were Bacillus subtilis, Staphylococcus aureus, and Mycolicibacterium smegmatis. Gram-negative bacteria included Acinetobacter baumannii, Chromobacterium violaceum, Escherichia coli, and Pseudomonas aeruginosa. Additionally, filamentous fungi such as Mucor hiemalis and yeasts including Candida albicans, Wickerhamomyces anomalus, Rhodotorula glutinis, and Schizosaccharomyces pombe were included. Generally, all compounds presented similar biological properties, summarized in weak or no activity against fungal pathogens as well as weak to moderate inhibition of Gram-positive bacteria (Table 2).
(§2) The antimicrobial and cytotoxic assays were performed according to the methods reported previously.[57]

S. pombe DSM 70572 = experiment: MIC against fungi (antimicrobial assay); type: cell-based, Schizosaccharomyces pombe
Procedure: as §1, §2

W. anomalus DSM 6766 = experiment: MIC against fungi (antimicrobial assay); type: cell-based, Wickerhamomyces anomalus; details: – = no activity observed under test conditions
Procedure: as §1, §2

C. albicans DSM 1665 = experiment: MIC against fungi (antimicrobial assay); type: cell-based, Candida albicans
Procedure: as §1, §2

M. hiemalis DSM 2656 = experiment: MIC against fungi (antimicrobial assay); type: cell-based, Mucor hiemalis
Procedure: as §1, §2

S. aureus DSM 1104 = experiment: MIC against bacteria (antimicrobial assay); type: cell-based, Staphylococcus aureus
Source text: The tested microorganisms comprised a diverse array of clinically relevant pathogens, encompassing sensitive indicator strains. Among the Gram-positive bacteria were Bacillus subtilis, Staphylococcus aureus, and Mycolicibacterium smegmatis. Gram-negative bacteria included Acinetobacter baumannii, Chromobacterium violaceum, Escherichia coli, and Pseudomonas aeruginosa. Additionally, filamentous fungi such as Mucor hiemalis and yeasts including Candida albicans, Wickerhamomyces anomalus, Rhodotorula glutinis, and Schizosaccharomyces pombe were included.
as §2

[1] = system: planktonic cells of S. aureus DSM 1104; experiment: Checkerboard broth dilution assay (FICI); type: cell-based, Staphylococcus aureus; details: for MIC: Staphylococcus aureus, DSM1104, compound alone, read-out: MIC of each single compound (MICs)
Source text: After assessing the effects of Acp A on the pathogen S. aureus, we delved deeper into the interaction of Acp A with established antibiotics (GM and Vac). This exploration focused on both planktonic cells and preformed biofilms of S. aureus. Consequently, we used a checkerboard assay to determine the fractional inhibitory concentration index (FICI) for combinations involving Acp A, GM, or Vac based on both their MIC values in combination.[49]
The interaction between arcopilin A, vancomycin, and gentamicin against S. aureus DSM 1104 was evaluated using a checkerboard broth dilution method to determine the fractional inhibitory concentration indices (FICIs), calculated as FIC = MIC of drug A in combination/MIC of drug A alone + MIC of drug B in combination/MIC of drug B alone.[59] The FICIs were interpreted as synergistic (FICI ≤ 0.5). For this assay, a seed culture was prepared as previously described to inoculate fresh CASO with 4% glucose broth to match the turbidity of a 0.1 McFarland standard suspension. Then, 100 μL of bacterial suspension was distributed in 96-well nontissue microtiter plates (TPP nontissue culture ref no. 92197, Switzerland). Arcopilin A (7.8–2 μg/mL) and antibiotics (vancomycin and gentamicin: 31.3–0.016 μg/mL) were added in increasing concentrations in columns and rows, respectively. The experiments were conducted in duplicate.

[2] = system: preformed biofilms of S. aureus DSM 1104; experiment: Disruption of preformed biofilms, crystal violet assay; type: cell-based, Staphylococcus aureus
Procedure: Therefore, Acp A–G were evaluated against preformed biofilms of S. aureus using crystal violet staining.[47]
Cultures of S. aureus DSM 1104 were prepared by inoculating 1 mL aliquots from a frozen stock (−20 °C) into 25 mL of CASO medium and incubating them overnight at 37 °C with shaking at 130 rpm.
The crystal violet assay was performed according to a previously reported procedure.[47] Arcopilins A–G were tested in serial dilutions (250–2 μg/mL), with methanol and microporenic acid A (MAA) as negative and positive controls, respectively. Statistical differences between samples and the controls were determined using a two-tailed Student’s t test, with statistical significance defined as p < 0.01. Statistical analysis was carried out using GraphPad Prism 9 (GraphPad Software, San Diego, CA).[58]

B. subtilis DSM 10 = experiment: MIC against bacteria (antimicrobial assay); type: cell-based, Bacillus subtilis
Procedure: as §1, §2

S. aureus DSM 346 = experiment: MIC against bacteria (antimicrobial assay); type: cell-based, Staphylococcus aureus; details: for MIC: Staphylococcus aureus, DSM346, DSM 346, – = no activity observed under test conditions
Procedure: as §1, §2

[3] = system: preformed biofilm cells of S. aureus DSM 1104; experiment: XTT assay, metabolic activity in preformed biofilm cells; type: cell-based, Staphylococcus aureus; details: 24 h treatment
Procedure: The seed culture of S. aureus DSM 1104 was prepared as previously described, and its OD600 was adjusted to match the turbidity of a 0.001 McFarland standard. Next, 150 μL of this bacterial solution in CASO with 4% glucose broth was incubated in 96-well tissue plates (TPP tissue culture ref no. 92196, Switzerland) for 24 h at 150 rpm. After incubation, the supernatant was discarded and 150 μL of the fresh media was added to the wells, along with serially diluted arcopilin A (31.3–0.5 μg/mL). The plate was further incubated for 24 h. Afterward, XTT (Cell profile XTT kit, Roche, Switzerland) was prepared in phosphate-buffered saline (PBS) at a final concentration of 0.3 mg/mL. The plate was washed three times with PBS buffer, and then, 150 μL of the prepared XTT solution was added to each well. Plates were further incubated for an additional 4 h at 37 °C while shaking (150 rpm), and absorbance was measured at 490 nm using a plate reader (Synergy 2, BioTek, Santa Clara). Methanol (2.5%) was used as the solvent control. Error bars indicate the standard deviation (SD) of duplicate with two repeats.

KB-3-1 (ACC 158) = experiment: Cytotoxicity against mammalian cell lines; type: cell-based; details: Homo sapiens, KB 3-1; ACC 158; – = no activity observed under test conditions; read-out: IC50 against mammalian cell lines, KB-3-1
Procedure: as §1, §2

L929 (ACC 2) = experiment: Cytotoxicity against mammalian cell lines; type: cell-based; details: Mus musculus, L929; ACC 2; – = no activity observed under test conditions; read-out: IC50 against mammalian cell lines, L929
Procedure: as §1, §2

[4] = system: preformed biofilms of S. aureus DSM 1104; experiment: CFU count analysis, synergistic effects on preformed biofilms; type: cell-based, Staphylococcus aureus; details: Acp A 7.8–3.9 μg/mL, GM 7.8–2 μg/mL, Vac 15.6–3.9 μg/mL
Procedure: The seed culture of S. aureus DSM 1104 was prepared as previously described, and the OD600 was adjusted to match the turbidity of a 0.001 McFarland standard. Then, 150 μL of bacterial solution in CASO with 4% glucose broth was incubated in 96-well tissue plates (TPP tissue culture ref no. 92196, Switzerland) for 24 h at 150 rpm. […] Methanol (2.5%) was used as the solvent control. The plates were incubated for a further 24 h at 37 °C. Colony-forming unit (CFU) count analysis of arcopilin A, antibiotics (vancomycin and gentamicin), and their combinations was performed as previously described.[58] Cells were suspended in the well 50 times. Dilution series in 1 to 10 steps (20 μL in 200 μL) were prepared down to a final dilution level of 10^–6, and 100 μL of this last dilution was platted on LB agar plates using 3 mm small glass beads (5 to 10, Omnilab, Germany) to homogeneously spread the liquid. Individual colonies on agar plates were counted after incubation at 30 °C for 24 and 48 h.[60] Afterward, CFUs were calculated by considering the dilution factors. Error bars indicate the SD of duplicate with two repeats.

E. coli DSM 1116 = experiment: MIC against bacteria (antimicrobial assay); type: cell-based; details: Escherichia coli, DSM1116, – = no activity observed under test conditions
Procedure: as §1, §2

C. violaceum DSM 30191 = experiment: MIC against bacteria (antimicrobial assay); type: cell-based; details: Chromobacterium violaceum, DSM30191, – = no activity observed under test conditions
Procedure: as §1, §2

[5] = supplement CSV, decimal comma, unit not given, in µg/mL

SMILES: C[C@@H]1[C@H](O)[C@@H](C)/C=C/C=C/CC/C=C/C=C/C=C/C=C/C(O[C@H]2O[C@H](C)[C@@H](O)[C@H](N)[C@@H]2O)CC2O[C@](O)(CC(O)C(O)CCC(O)CC(O)CC(O)CC(=O)O[C@H]1C)CC(O)C2C(=O)O (stereo partly drawn) [Nystatin, reference compound]
MIC against fungi, R. glutinis (R. glutinis DSM 10134): 4.2^e μg/mL | MIC against fungi, S. pombe (S. pombe DSM 70572; DSM 70572, – = no activity observed under test conditions): 4.2^e μg/mL | MIC against fungi, W. anomalus (W. anomalus DSM 6766): 8.3^e μg/mL | MIC against fungi, C. albicans (C. albicans DSM 1665; DSM 1665, – = no activity observed under test conditions): 8.3^e μg/mL | MIC against fungi, M. hiemalis (M. hiemalis DSM 2656; DSM 2656, – = no activity observed under test conditions): 8.3^e μg/mL

MIC (S. aureus DSM 1104; Staphylococcus aureus, DSM1104, DSM 1104): 31.3 µg/mL (≈ 84.7 µM) | MIC S. aureus (S. aureus DSM 1104; supplement CSV, second S. aureus column (value matches DSM 1104 of Table 2), decimal comma, unit not given, in µg/mL): 31,3 | MIC (S. pombe DSM 70572; Schizosaccharomyces pombe, DSM70572, DSM 70572, – = no activity observed under test conditions): 66.7 µg/mL (≈ 181 µM) | MIC S. pombe (S. pombe DSM 70572; [5]): 66,7 | MIC [1]: 31.3 µg/mL | decrease of the MIC value when combined with each antibiotic ([1]; combined with GM or Vac): ~10 fold | MIC (B. subtilis DSM 10; Bacillus subtilis, DSM10, DSM 10, – = no activity observed under test conditions): 66.7 µg/mL (≈ 181 µM) | MIC B. subtilis (B. subtilis DSM 10; [5]): 66,7 | MIC (S. aureus DSM 346): 66.7 µg/mL (≈ 181 µM) | MIC S. aureus (S. aureus DSM 346; supplement CSV, S. aureus, decimal comma, unit not given, in µg/mL): 66,7 | MIC (C. albicans DSM 1665; Candida albicans, DSM1665, DSM 1665, – = no activity observed under test conditions): 66.7 µg/mL (≈ 181 µM) | MIC C. albicans (C. albicans DSM 1665; [5]): 66,7 | MIC (M. hiemalis DSM 2656; Mucor hiemalis, DSM2656, DSM 2656, – = no activity observed under test conditions): 66.7 µg/mL (≈ 181 µM) | MIC M. hiemalis (M. hiemalis DSM 2656; [5]): 66,7
SMILES: CC(=O)[C@H](C)C[C@@H](C)C[C@H](C)C(=O)C1=C(O)/C(=C/c2ccccc2)NC1=O [Acp A, Arcopilin A]
efficacy toward preformed biofilms ([2]; at 3.9 μg/mL): 35–45% | efficacy toward preformed biofilms ([2]; concentration range 15.6 to 250 μg/mL): 50–60% | disrupting effect on preformed biofilms (in words) ([2]; tested 250–2 μg/mL): most promising disrupting effects; also recorded: remarkable effectiveness | lowest concentration with significant reduction in metabolic activity [3]: 3.9 µg/mL | IC50 (KB-3-1 (ACC 158)): 8.9 µg/mL (≈ 24.1 µM) | IC50 (L929 (ACC 2)): 14 µg/mL (≈ 37.9 µM)

MIC [1]: 15.6 µg/mL | MIC in combination (MICc), Acp A and GM ([1]; combination of Acp A (3.9 μg/mL) with GM): 0.13 µg/mL | MIC (S. aureus DSM 346): 0.4 µg/mL (≈ 0.838 µM) | MIC (E. coli DSM 1116): 1.7 µg/mL (≈ 3.56 µM) | MIC (C. violaceum DSM 30191): 0.42 µg/mL (≈ 0.879 µM)
SMILES: CNC(C)C1CCC(N)C(OC2C(N)CC(N)C(OC3OCC(C)(O)C(NC)C3O)C2O)O1 (stereo not drawn) [Gentamicin]
improvement in the inhibitory effects in combination with Acp A [4]: ~3 fold | increase of the potency of the antibiotic in combination with Acp A ([1]; Acp A 3.9 μg/mL, MIC alone versus in combination): up to 115 fold | FICI, Acp A and GM ([1]; FICI < 0.5: synergistic, value belongs to the combination): < 0.5
